In one data set the test system is Gram-positive bacteria. The conditions noted are these: gram-positive bacteria.
Data set [1] in a line: Peptide hydrophobicity by RP-HPLC retention. The class given is physicochemical. The conditions noted are these: 80° C., polar face substitution. The protocol: Peptide Synthesis and Purification—Syntheses of the peptides were carried out by solid-phase peptide synthesis using t-butyloxycarbonyl chemistry and MBHA (4-methylbenzhydrylamine) resin (0.97 mmol/g), followed by cleavage of the peptide from the resin as described previously (117-119). However, it is understood in the art that there are other suitable instruments and methods for automated or manual peptide synthesis that could be employed to produce the peptides described herein. Peptide purification was performed by reversed-phase high-performance liquid chromatography (RP-HPLC) on a Zorbax 300 SB-C8 column (250×9.4 mm I.D.; 6.5 μm particle size, 300 Å pore size; Agilent Technologies, Little Falls, Del.) with a linear AB gradient (0.1% acetonitrile/min) at a flow rate of 2 mL/min, where eluent A was 0.2% aqueous trifluoroacetic acid (TFA), pH 2, and eluent B was 0.2% TFA in acetonitrile, where the shallow 0.1% acetonitrile/min gradient started 12% below the acetonitrile concentration required to elute the peptide on injection of analytical sample using a gradient of 1% acetonitrile/min (113). The purity of the peptides was verified by analytical RP-HPLC as described below and further characterized by mass spectrometry and amino acid analysis. Crude and purified peptides were analyzed on an Agilent 1100 series liquid chromatograph. Runs were performed on a Zorbax 300 SB-C8 column (150×2.1 mm I.D.; 5 μm particle size, 300 Å pore size) from Agilent Technologies using a linear AB gradient (1% acetonitrile/min) and a flow rate of 0.25 mL/min, where eluent A was 0.2% aqueous TFA, pH 2, and eluent B was 0.2% TFA in acetonitrile.
Analytical RP-HPLC of Peptides—Peptides were analyzed on an Agilent 1100 series liquid chromatograph (Little Falls, Del.). Runs were performed on a Zorbax 300 SB-C8 column (150×2.1 mm I.D.; 5 μm particle size, 300 Å pore size) from Agilent Technologies using linear AB gradient (1% acetonitrile/min) and a flow rate of 0.25 ml/min, where solvent A was 0.05% aqueous TFA, pH 2 and solvent B was 0.05% TFA in acetonitrile. Temperature profiling analyses were performed in 3° C. increments, from 5° C. to 80° C.

The nature of data set [2]: Helical structure by circular dichroism spectroscopy. The class given is physicochemical. On the procedure: The mean residue molar ellipticities of peptides were determined by circular dichroism (CD) spectroscopy, using a Jasco J-810 spectropolarimeter (Easton, Md.) at 5° C. under benign (non-denaturing) conditions (50 mM NaH2PO4/Na2HPO4/100 mM KCl, pH 7.0), hereafter referred to as benign buffer, as well as in the presence of an α-helix inducing solvent, 2,2,2-trifluoroethanol, TFE, (50 mM NaH2PO4/Na2HPO4/[…], pH 7.0 buffer/50% TFE). A 10-fold dilution of an approximately […] stock solution of the peptide analogs was loaded into a 0.1 cm quartz cell and its ellipticity scanned from 195 to 250 nm. The values of molar ellipticities of the peptide analogs at a wavelength of 222 nm were used to estimate the relative α-helicity of the peptides.

The nature of data set [3]: CD temperature denaturation study. Conditions: 50% TFE. The class given is physicochemical. On the procedure: CD Temperature Denaturation Study of Peptide V681—The native peptide V681 was dissolved in 0.05% aqueous TFA containing 50% TFE, pH 2, loaded into a 0.02 cm fused silica cell and peptide ellipticity scanned from 190 to 250 nm at temperatures of 5, 15, 25, 35, 45, 55, 65 and 80° C. The spectra at different temperatures were used to mimic the alteration of peptide conformation during temperature profiling analysis in RP-HPLC. The ratio of the molar ellipticity at a particular temperature (t) relative to that at 5° C. ([θ]t−[θ]u)/([θ]5−[θ]u) was calculated and plotted against temperature in order to obtain the thermal melting profiles, where [θ]5 and [θ]u represent the molar ellipticity values for the fully folded and fully unfolded species, respectively. […] was determined in the presence of 8M urea with a value of 1500 deg·cm^2·dmol^−1 to represent a totally random coil state (31). The melting temperature (Tm) was calculated as the temperature at which the α-helix was 50% denatured (([θ]t−[θ]u)/([θ]5−θ[θ]u)=0.5) and the values were taken as a measure of α-helix stability.

As to “Ac-KWKSFLKTFKSAVKTVLHTALKAISS-NH2 [V681, reference compound]”, the “geometric mean MIC” value in the data set on Gram-positive bacteria was found to be 6.3 µg/mL. In addition, the “change in hydrophobicity (RP-HPLC retention) relative to PVL” value in data set [1] is -0.35 min. In data set [2] (100 mM KCl, 50 mM aq. PO4, pH 7), the “[θ]222 in benign conditions” value is on record as −12,900. Also, in data set [2] (50% TFE), the “[θ]222 in 50% TFE” value is listed as −27,300 and the α-helical content came out at 94%. Besides, in data set [2] (benign conditions), the α-helical content is given as 45%. In addition, the “transition temperature Tm (50% of α-helical structure denatured)” value in data set [3] was found to be 79.3 °C.

The record behind these values is patent publication US20100099614A1, “Antimicrobial Peptides and Methods of Use” (priority 2008, published 2010).
